From patent publication US20100166897A1, “COMBINATION OF MONOSACCHARIDES WITH ANTIOXIDANTS AND USE THEREOF” (L'OREAL, priority 2008, published 2010)

Tests used:
type I procollagen = test: Synthesis of procollagen 1 in reconstructed skin (indirect immunofluorescence); type: cell-based, human
Method: Conventional detection via indirect immunofluorescence of type I procollagen in the dermis of the reconstructed skin was also performed on other series of frozen sections (anti-procoll 1 antibody (MAB 1912 Millipore)+FTIC-coupled conjugate (112-095-068 Jackson Immunoresearch)). In order to obtain bearings within the cutaneous architecture during the microscopic examination of the sections, the cell nuclei of the keratinocytes and fibroblasts are localized by staining them with propidium iodide, as described above. Three frozen sections are prepared at random on each reconstructed skin and on each section, and two microscopic fields (25× objective lens) are analysed is by fluorescence microscopy and photographed. The levels of fluorescence proportional to the amount of type I procollagen are compared between the control skin and the skin treated with rhamnose.

[1] = system: dermal fibroblasts of the reconstructed skin; test: Proliferation of fibroblasts in whole reconstructed skin (propidium iodide count on frozen sections); type: cell-based, human; conditions: 5 mM rhamnose; within 48 hours of treatment
Text: Rhamnose was studied on a model of whole reconstructed skin in order to measure its anti-ageing efficacy on the dermal compartment.
Briefly, the model of reconstructed skin used is that described by Bell et al. (Bell E. et al., The reconstitution of living skin, J. Invest. Dermatol., 1983, July; 81): it includes a dermal equivalent on which is reconstructed a multistratified epidermis; the dermal equivalent is manufactured from acid-soluble collagen, culture medium containing serum and normal adult human fibroblasts. After 5 days of shrinkage, this equivalent is inoculated with keratinocytes and then cultured for 6 days in immersion and for 7 days in emersion in order to obtain a multistratified and differentiated epidermis having a horny layer.
The reconstructed skin is treated with 5 mM rhamnose for 2 days and 5 days in the culture medium; after the treatment, the reconstructed skins are included in Tissue Tek in order to produce frozen sections 7 μm thick with a cryostat. […] Three frozen sections are prepared at random on each reconstructed skin; on each section, two microscopic fields (25× objective lens) are analysed by fluorescence microscopy and photographed. The dermal fibroblasts are thus counted for each reconstructed skin on six images in total representing the six microscopic fields considered. […]

[2] = system: keratinocytes (HaCat line); test: Proliferation of keratinocytes (HaCat line) in medium deficient in growth factors; Cyquant, Nile red and XTT probes; type: cell-based
Method: The keratinocytes (HaCat line) are cultured under two conditions: whole defined culture medium (standard condition) and culture medium deficient in growth factors. This deficient medium gives rise to a controlled delay in cell proliferation. Under these conditions, it is then possible to measure the effects of compounds capable of compensating for the deficiency in growth factors of the culture medium and thus of relaunching the cell multiplication and/or of stimulating cell metabolism.
The keratinocyte proliferation is measured by means of three markers on the same cell population: the level of DNA, which is proportional to the number of cells (Cyquant probe), the level of constituent polar lipids of cell membranes (Nile red probe) and the mitochondrial respiration, which reflects the general cell metabolism (XTT probe).

## C[C@H](O)[C@H](O)[C@@H](O)[C@@H](O)C=O [rhamnose]
Type I procollagen; 1 mM rhamnose for 120 hours, reconstructed skin
  synthesis of type I procollagen by the fibroblasts: greatly stimulated
Type I procollagen; 1 mM rhamnose for 120 hours, reconstructed skin section
  green fluorescence (proportional to amount of type I procollagen) compared with control skin: marked increase
Type I procollagen; 1 mM, reconstructed skin
  procollagen 1 synthesis: stimulation of procollagen 1 synthesis
Type I procollagen; 5 mM, reconstructed skin
  procollagen 1 synthesis: stimulation of procollagen 1 synthesis
[1]
  growth of the dermal fibroblasts of the reconstructed skin: stimulation of growth
[2]; keratinocytes cultured in medium depleted in growth factor
  number of cells compared with an untreated control: higher number of cells
[2]; keratinocytes cultured in medium depleted in growth factors
  keratinocyte proliferation: activate keratinocyte proliferation
